PMC11357054, “Azobenzenesulfonamide Carbonic Anhydrase Inhibitors as New Weapons to Fight Helicobacter pylori: Synthesis, Bioactivity Evaluation, In Vivo Toxicity, and Computational Studies” (Pharmaceuticals, 2024)
≈ marks a conversion by molar mass, not a printed value. Where two headings read alike, the source gives them in different places.

What was measured:
H. pylori ATCC 43504 = system: T1, H. pylori ATCC 43504; assay: microbe, parasite or virus in culture; design: species or system Helicobacter pylori ATCC 43504; MIC by broth microdilution, alamarBlue and CFU count; MBC by CFU count; settings: Helicobacter pylori, ATCC43504
T1 construct: ATCC 43504
Protocol: H. pylori ATCC 43504 was cultured on a Columbia Agar base (Becton Dickinson and Company, Franklin Lakes, NJ, USA) supplemented with 10% horse serum (Merck, St. Louis, MO, USA) and 0.25% yeast extract (Oxoid Ltd., Hampshire, UK), incubated at 37 °C for 72 h in a microaerophilic atmosphere (CampyGen, Thermo Fisher Scientific, Milan, Italy). Colonies were collected and transferred into 10 mL of Brain Heart Infusion broth (BHI, Oxoid Ltd., Hampshire, UK) supplemented with 5% (v/v) of fetal bovine serum (FBS, Merck, Milan, Italy) and incubated overnight at 37 °C, at 125 rpm under microaerophilic conditions. After 18 h of incubation, the broth culture was diluted to obtain a bacterial suspension of 10^6 CFU/mL. MICs were determined by three different assays: the broth micro-dilution method, the alamarBlue assay, and the CFU count. […] This bacterium was selected based on the inhibitory potency evidenced by the two series of azobenzenesulfonamides against the HpCAs.

hCA IX [1] = target: T2, hCA IX (Homo sapiens, UniProt Q16790); assay: stopped-flow CO2 hydration; assay type: biochemical; settings: read-out: KI (nM) * / Human Isoforms / hCA IX
T2 construct: gene CA9
Source text: stopped-flow CO2 hydration on hCA IX

HpβCA = target: T3, HpβCA (Helicobacter pylori, UniProt Q9ZN54); assay: stopped-flow CO2 hydration; assay type: biochemical; settings: read-out: KI (nM) * / Bacterial Isoforms / Hp βCA
T3 construct: gene cynT; recombinant, obtained in-house
T3 sequence (Q9ZN54 1-221): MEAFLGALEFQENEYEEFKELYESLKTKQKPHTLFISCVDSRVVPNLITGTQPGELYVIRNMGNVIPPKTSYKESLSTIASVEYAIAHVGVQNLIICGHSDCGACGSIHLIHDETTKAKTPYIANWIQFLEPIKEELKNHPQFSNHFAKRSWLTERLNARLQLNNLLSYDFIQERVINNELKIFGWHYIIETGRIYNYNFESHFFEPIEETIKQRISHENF

PgiγCA = target: T4, PgiγCA; assay: stopped-flow CO2 hydration; assay type: biochemical, Porphyromonas gingivalis; settings: pH […] HEPES, […] Na2SO4, […] min preincubation, r.t.; read-out: KI (nM) * / Bacterial Isoforms / Pgi γCA
T4 construct: gene PgiCA; recombinant, obtained in-house

PgiβCA = target: T5, PgiβCA; assay: stopped-flow CO2 hydration; assay type: biochemical, Porphyromonas gingivalis; settings: pH […] HEPES, […] Na2SO4, […] min preincubation, r.t.; read-out: KI (nM) * / Bacterial Isoforms / Pgi βCA
T5 construct: gene PgiCAb; recombinant, obtained in-house

PsCA3 [2] = target: T6, PsCA3 (Pseudomonas aeruginosa, UniProt Q9HVB9); assay: stopped-flow CO2 hydration; assay type: biochemical; settings: read-out: KI (nM) * / Bacterial Isoforms / Ps CA3
T6 construct: gene PA4676; recombinant, obtained in-house
T6 sequence (Q9HVB9 1-215): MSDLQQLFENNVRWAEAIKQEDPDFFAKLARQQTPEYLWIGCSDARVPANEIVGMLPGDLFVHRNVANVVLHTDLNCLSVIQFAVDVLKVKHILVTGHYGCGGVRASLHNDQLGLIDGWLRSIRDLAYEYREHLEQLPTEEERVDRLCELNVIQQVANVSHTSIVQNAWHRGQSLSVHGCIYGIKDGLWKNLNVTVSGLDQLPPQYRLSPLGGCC

hCA XII [3] = target: T7, hCA XII (Homo sapiens, UniProt O43570); assay: stopped-flow CO2 hydration; assay type: biochemical; settings: read-out: KI (nM) * / Human Isoforms / hCA XII
T7 construct: gene CA12
T7 sequence (O43570 30-289 limits assumed): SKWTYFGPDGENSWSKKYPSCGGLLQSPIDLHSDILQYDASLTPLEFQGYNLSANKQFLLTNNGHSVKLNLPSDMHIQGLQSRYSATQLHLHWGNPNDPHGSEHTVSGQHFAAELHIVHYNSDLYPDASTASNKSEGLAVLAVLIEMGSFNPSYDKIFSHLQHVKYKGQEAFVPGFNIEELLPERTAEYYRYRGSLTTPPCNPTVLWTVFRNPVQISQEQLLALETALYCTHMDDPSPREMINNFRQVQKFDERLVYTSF
Source text: stopped-flow CO2 hydration on hCA XII

HpαCA = target: T8, HpαCA (Helicobacter pylori, UniProt B5Z8I0); assay: stopped-flow CO2 hydration; assay type: biochemical
T8 construct: gene HPG27_1129; recombinant, obtained in-house; PDB 4XFW is given for docking only
T8 sequence (B5Z8I0 22-247): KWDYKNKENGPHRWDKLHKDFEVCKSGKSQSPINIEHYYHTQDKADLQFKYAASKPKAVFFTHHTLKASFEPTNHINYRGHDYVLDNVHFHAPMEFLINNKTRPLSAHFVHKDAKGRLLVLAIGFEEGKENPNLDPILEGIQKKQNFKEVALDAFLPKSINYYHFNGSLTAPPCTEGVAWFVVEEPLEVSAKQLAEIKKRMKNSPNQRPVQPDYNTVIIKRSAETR

hCA II [4] = target: T9, hCA II (Homo sapiens, UniProt P00918); assay: stopped-flow CO2 hydration; assay type: biochemical; settings: read-out: KI (nM) * / Human Isoforms / hCA II
T9 construct: gene CA2; purchased from Merck
Source text: stopped-flow CO2 hydration on hCA II

EcoβCA [5] = target: T10, EcoβCA (Escherichia coli, UniProt P61517); assay: stopped-flow CO2 hydration; assay type: biochemical; settings: read-out: KI (nM) * / Bacterial Isoforms / Eco βCA
T10 construct: gene can; recombinant, obtained in-house
T10 sequence (P61517 whole entry, canonical isoform): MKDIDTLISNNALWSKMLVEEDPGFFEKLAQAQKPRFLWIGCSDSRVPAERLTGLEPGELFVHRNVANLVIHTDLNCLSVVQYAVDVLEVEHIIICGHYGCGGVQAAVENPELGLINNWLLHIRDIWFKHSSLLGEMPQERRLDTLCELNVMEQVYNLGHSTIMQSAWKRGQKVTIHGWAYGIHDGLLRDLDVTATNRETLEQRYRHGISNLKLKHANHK

hCA I [6] = target: T11, hCA I (Homo sapiens, UniProt P00915); assay: stopped-flow CO2 hydration; assay type: biochemical; settings: read-out: KI (nM) * / Human Isoforms / hCA I
T11 construct: gene CA1; purchased from Merck
T11 sequence (P00915 2-261): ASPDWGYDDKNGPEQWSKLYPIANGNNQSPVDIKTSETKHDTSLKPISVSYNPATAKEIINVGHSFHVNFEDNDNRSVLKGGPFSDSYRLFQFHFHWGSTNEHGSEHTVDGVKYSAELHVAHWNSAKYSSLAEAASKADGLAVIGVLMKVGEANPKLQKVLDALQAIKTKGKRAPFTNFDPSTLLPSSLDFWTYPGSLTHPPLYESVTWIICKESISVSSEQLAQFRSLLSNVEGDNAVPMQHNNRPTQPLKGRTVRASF
Source text: stopped-flow CO2 hydration on hCA I

hCA IX [7] = target: T2, hCA IX; assay: biochemical; settings: read-out: Human Isoforms / hCA IX
Protocol: (§1) An Applied Photophysics stopped-flow instrument was used to evaluate the ability of the test compounds to inhibit CA-catalyzed CO2 hydration. […] The CO2 concentrations ranged from 1.7 to 17 mM for the determination of the kinetic parameters and inhibition constants. Enzyme concentrations spanned from 5 to 12 nM. Stock solutions of the inhibitor (0.1 mM) were prepared in distilled–deionized water, and dilutions up to 0.01 nM were prepared with the assay buffer. Inhibitor and enzyme solutions were preincubated for 15 min at r.t. for the formation of the E–I complex. The inhibition constants were obtained by non-linear least-squares methods using PRISM 3 and the Cheng–Prusoff equation and represent the mean from at least three different determinations. Apart from human CAs I and II purchased from Merck, all the bacterial CAs were recombinant and obtained in-house. Compounds 4a–j and 5a–j were tested on a large panel of human and bacterial isoenzymes belonging to different CA families, evaluating their inhibitory activity through the CO2 hydration activity assay by means of the stopped-flow technique, and the inhibitory constants (KIs) are reported in Table 1 and Table 2, respectively. In particular, we tested the hypoxic tumor-associated hCAs IX and XII, and bacterial isoforms involved in several infectious diseases, such as those caused by H. pylori (HpαCA and HpβCA), Porphyromonas gingivalis (PgiβCA and PgiγCA), Escherichia coli (EcoβCA), Pseudomonas aeruginosa (PsCA3, belonging to the β-class), Mammaliicoccus (Staphylococcus) sciuri (MscCA, belonging to the β-class), and Streptococcus mutans (SmuCA, belonging to the β-class). The inhibition of human physiologically relevant isoforms I and II was also investigated in order to assess the compounds’ selectivity. Our main aim was to rationalize the structural requirements of sulfonamide-containing compounds useful for targeting HpCAs, in order to gain a larger knowledge for further optimization studies focusing on isoform selectivity. In fact, although the tested human and bacterial isoforms present a low degree of sequence similarity, they catalyze the same reaction and contain the catalytically active zinc ion in the active site. Thus, a comparison of the data obtained from different members of this large superfamily has a high relevance in the field. By observing Table 1 and Table 2, interesting structure–activity relationship (SAR) considerations can be inferred.

hCA I [8] = target: T11, hCA I; assay: biochemical; settings: read-out: Human Isoforms / hCA I
Protocol: as §1

hCA XII [9] = target: T7, hCA XII; assay: biochemical; settings: read-out: Human Isoforms / hCA XII
Protocol: as §1

EcoβCA [10] = target: T10, EcoβCA; assay: biochemical; settings: read-out: Bacterial Isoforms / Eco βCA
Protocol: as §1

PsCA3 [11] = target: T6, PsCA3; assay: biochemical; settings: read-out: Bacterial Isoforms / Ps CA3
Protocol: as §1

hCA II [12] = target: T9, hCA II; assay: biochemical; settings: read-out: Human Isoforms / hCA II
Protocol: as §1

[13] = read-out: KI (nM) / Bacterial Isoforms / Hp αCA

SMILES	MBC (H. pylori ATCC 43504) [µg/mL]	MIC (H. pylori ATCC 43504) [µg/mL]	Ki (hCA IX [1]) [nM]	Ki (HpβCA) [nM]	Ki (PgiγCA) [nM]	Ki (PgiβCA) [nM]	Ki (PsCA3 [2]) [nM]	Ki (hCA XII [3]) [nM]	Ki (HpαCA; read-out: KI (nM) * / Bacterial Isoforms / Hp αCA) [nM]	Ki (hCA II [4]) [nM]	Ki (EcoβCA [5]) [nM]	Ki (hCA I [6]) [nM]	Ki (HpαCA; [13]) [nM]	Ki (hCA IX [7]) [µM]	Ki (hCA I [8]) [µM]	Ki (hCA XII [9]) [µM]	Ki (EcoβCA [10]) [µM]	Ki (PsCA3 [11]) [µM]	Ki (hCA II [12]) [µM]
Cc1cc(O)ccc1/N=N/c1ccc(S(N)(=O)=O)cc1 [4j, (E)-4-((4-hydroxy-2-methylphenyl)diazenyl)benzenesulfonamide]	32 (≈ 110 µM)	16 (≈ 54.9 µM)	213	138	914	5780	1840	84.1	72.2	4.7	3040	5.3							
O=S(=O)(Nc1ccc(N=Nc2ccccc2)cc1)c1ccccc1 [5a]	32 (≈ 94.8 µM)	16 (≈ 47.4 µM)											460	3.98	0.209	0.955	6.95	9.28	> 100
N#Cc1ccc(S(=O)(=O)Nc2ccc(N=Nc3ccccc3)cc2)cc1 [5b]	64 (≈ 177 µM)	32 (≈ 88.3 µM)											75.6	0.614	0.359	0.76	73.4	5.76	> 100
N#Cc1ccc(S(=O)(=O)Nc2ccc(N=Nc3ccccc3)cc2)c(Cl)c1 [5c]	8 (≈ 20.2 µM)	4 (≈ 10.1 µM)											77.6	9.2	0.908	1.75	9.21	> 100	24.7
O=[N+]([O-])c1cccc(S(=O)(=O)Nc2ccc(N=Nc3ccccc3)cc2)c1 [5d]	64 (≈ 167 µM)	16 (≈ 41.8 µM)											70.9	0.601	6.75	0.215	9.08	90.2	> 100
Cc1ccc(S(=O)(=O)Nc2ccc(N=Nc3ccccc3)cc2)cc1[N+](=O)[O-] [5e]	16 (≈ 40.4 µM)	8 (≈ 20.2 µM)											604	0.792	0.853	0.847	59	> 100	> 100
COc1ccc(S(=O)(=O)Nc2ccc(N=Nc3ccccc3)cc2)c(OC)c1 [5f]	4 (≈ 10.1 µM)	4 (≈ 10.1 µM)											71.3	5.74	0.905	0.894	77.7	> 100	> 100
O=S(=O)(Nc1ccc(N=Nc2ccccc2)cc1)c1ccc(Cl)s1 [5g]	16 (≈ 42.3 µM)	16 (≈ 42.3 µM)											55.8	4.04	0.905	4.12	59.2	> 100	> 100
O=S(=O)(Cc1ccccc1)Nc1ccc(N=Nc2ccccc2)cc1 [5h]	128 (≈ 364 µM)	64 (≈ 182 µM)											79	4.49	5.53	2.25	88.5	> 100	> 100
CCS(=O)(=O)Nc1ccc(N=Nc2ccccc2)cc1 [5j]	16 (≈ 55.3 µM)	16 (≈ 55.3 µM)											68.4	7.07	0.931	3.34	> 100	69.8	> 100
